The source of these data is patent publication US20250275965A1, “COMPOUNDS AS CASEIN KINASE INHIBITORS” (GRITSCIENCE BIOPHARMACEUTICALS CO.,LTD., priority 2020, published 2025).

The target of data set [1] is CK1δ (Homo sapiens, UniProt P48730). Briefly: CK1δ kinase assay (Kinase-Glo). Format: biochemical. Conditions: 10 μM ATP, 2 nM wild type kinase, 85 min at 25° C. As to the method:
The reaction mixture was incubated for 85 min at 25° C.; detection was carried out as described for the Kinase-Glo Assay (Promega). Luminescent output was measured on the Perkin Elmer Envision plate reader (PerkinElmer, Waltham, MA).
Background: Kinase-Glo reads ATP consumption through a luciferase reaction.

Data set [2] can be described thus: in vitro. Conditions: human, Caco-2, pH 7.4. As to the method: 1) 50 μL and 25 mL of cell culture medium were added to each well of the Transwell insert and reservoir, respectively. And then the HTS transwell plates were incubated at 37° C., 5% CO2 for 1 hour before cell seeding.
2) Caco-2 cells were diluted to 6.86×10^5 cells/mL with culture medium and 50 μL of cell suspension were dispensed into the filter well of the 96-well HTS Transwell plate. Cells were cultivated for 14-18 days in a cell culture incubator at 37° C., 5% CO2, 95% relative humidity. Cell culture medium was replaced every other day, beginning no later than 24 hours after initial plating.
10 mM stock solutions of test compounds were prepared in DMSO. The stock solutions of positive controls were prepared in DMSO at the concentration of 10 mM.
1) Medium was removed from the reservoir and each Transwell insert and replaced with prewarmed fresh culture medium.
2) Transepithelial electrical resistance (TEER) across the monolayer was measured using Millicell Epithelial Volt-Ohm measuring system (Millipore, USA).
3) The Plate was returned to the incubator once the measurement was done.
The TEER value was calculated according to the following equation: TEER measurement (ohms)*Area of membrane (cm^2)=TEER value (ohm·cm^2) TEER value should be greater than 230 ohm·cm^2, which indicates the well-qualified Caco-2 monolayer.
1) The Caco-2 plate was removed from the incubator and washed twice with pre-warmed HBSS (10 mM HEPES, pH 7.4), and then incubated at 37° C. for 30 minutes.
2) The stock solutions of control compounds and test compounds were diluted in DMSO to get 1 mM solutions and then diluted with HBSS (10 mM HEPES, pH 7.4) get 5 μM working solutions. The final concentration of DMSO in the incubation system was 0.5%.
3) To determine the rate of drug transport in the apical to basolateral direction. 125 μL of 5 μM working solution of control compound and test compounds were added to the Transwell insert (apical compartment), and transfer 50 μL sample (DO sample) immediately from the apical compartment to a new 96-well plate. Fill the wells in the receiver plate (basolateral compartment) with 235 μL of HBSS (10 mM HEPES, pH 7.4).
4) To determine the rate of drug transport in the basolateral to apical direction. 285 μL of 5 μM working solution of control compound and test compounds were to the receiver plate wells (basolateral compartment), and transfer 50 μL sample (DO sample) immediately from the basolateral compartment to a new 96-well plate. Fill the wells in the Transwell insert (apical compartment) with 75 μL of HBSS (10 mM HEPES, pH 7.4). The assay was performed in duplicate.
5) The plates were incubated at 37° C. for 2 hours.
Samples were Vortexed for 5 minutes and then centrifuged at 3,220 g for 40 minutes. An aliquot of 100 μL of the supernatant was mixed with an appropriate volume of ultra-pure water before LC-MS/MS analysis.
7) To determine the Lucifer Yellow leakage after 2 hour transport period, stock solution of Lucifer yellow was prepared in water and diluted with HBSS (10 mM HEPES, pH 7.4) to reach the final concentration of 100 μM. 100 μL of the Lucifer yellow solution was added to each Transwell insert (apical compartment), followed by filling the wells in the receiver plate (basolateral compartment) with 300 μL of HBSS (10 mM HEPES, pH 7.4). The plates were Incubated at 37° C. for 30 mins. 80 μL samples were removed directly from the apical and basolateral wells (using the basolateral access holes) and transferred to wells of new 96 wells plates. The Lucifer Yellow fluorescence (to monitor monolayer integrity) signal was measured in a fluorescence plate reader at 485 nm excitation and 530 nm emission.
The apparent permeability coefficient (Papp), in units of centimeter per second, can be calculated for Caco-2 drug transport assays using the following equation: […]

Data set [3] is described as follows: Intrinsic clearance in liver microsomes (human). Format: in vitro ADME. Conditions: Human liver microsomes 0.5 mg/mL, 2 μM compound, 37° C.; for microsomal CLint at 2 μM: read-out: in vitro CLint (μL/min/mg protein); for half-life at 2 μM: read-out: in vitro t1/2. The procedure: (§1) 1. The master solution was prepared according to Table 4.
(§2) 2. Three separated experiments were performed as follows. a) With NADPH: 10 μL of 20 mg/mL liver microsomes and 40 μL of 10 mM NADPH were added to the incubations. The final concentrations of microsomes and NADPH were 0.5 mg/mL and 1 mM, respectively. b) Without NADPH: 10 μL of 20 mg/mL liver microsomes and 40 μL of ultra-pure H2O were added to the incubations. The final concentration of microsomes was 0.5 mg/mL. c) Heat-inactivated microsomes without NADPH: 10 μL of 20 mg/mL heat-inactivated liver microsomes and 40 μL of ultra-pure H2O were added to the incubations. The final concentration of microsomes was 0.5 mg/mL.
(§3) 3. The reaction was started with the addition of 4 μL of 200 μM test compound solution or control compound solution at the final concentration of 2 μM and carried out at 37° C.
(§4) 4. Aliquots of 50 μL were taken from the reaction solution at 0, 15, 30, 45 and 60 min. The reaction was stopped by the addition of 4 volumes of cold acetonitrile with IS (100 nM alprazolam, 200 nM labetalol, 200 nM caffeine and 2 μM ketoprofen). Samples were centrifuged at 3, 220 g for 40 minutes.
(§5) All calculations were carried out using Microsoft Excel.
(§6) Peak areas were determined from extracted ion chromatograms. The slope value, k, was determined by linear regression of the natural logarithm of the remaining percentage of the parent drug vs. incubation time curve.
(§7) The in vitro half-life (in vitro t1/2) was determined from the slope value:
(§8) Conversion of the in vitro t1/2 (min) into the in vitro intrinsic clearance (in vitro CLint, in μL/min/mg protein) was done using the following equation (mean of duplicate determinations): […]

Data set [4] can be described thus: Intrinsic clearance in liver microsomes (mouse). Format: in vitro ADME. Conditions: Mouse liver microsomes 0.5 mg/mL, 2 μM compound, 37° C.; for microsomal CLint at 2 μM: read-out: in vitro CLint (μL/min/mg protein); for half-life at 2 μM: read-out: in vitro t1/2. As to the method: as §1, §2, §3, §4, §5, §6, §7, §8

CK1δ, sequence (P48730 whole entry): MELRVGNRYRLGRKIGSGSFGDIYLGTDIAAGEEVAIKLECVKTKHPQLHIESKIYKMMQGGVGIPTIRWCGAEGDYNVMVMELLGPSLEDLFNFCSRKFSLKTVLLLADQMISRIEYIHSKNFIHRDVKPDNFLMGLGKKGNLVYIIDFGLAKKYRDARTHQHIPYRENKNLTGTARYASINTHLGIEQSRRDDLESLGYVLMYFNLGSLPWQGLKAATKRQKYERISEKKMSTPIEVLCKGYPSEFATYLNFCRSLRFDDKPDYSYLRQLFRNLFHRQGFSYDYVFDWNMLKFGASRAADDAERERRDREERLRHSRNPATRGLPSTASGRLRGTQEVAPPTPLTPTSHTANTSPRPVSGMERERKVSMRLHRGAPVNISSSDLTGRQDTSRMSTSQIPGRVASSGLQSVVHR

On to `Cn1cc(-c2ccnc3ccnn23)c(-c2ccc(F)cc2)n1` [Compound I-1, 7-(3-(4-fluorophenyl)-1-methyl-1H-pyrazol-4-yl)pyrazolo[1,5-a]pyrimidine], for which, in data set [1], the EC50 – broadly, the midpoint of the concentration-response curve – came to 15 µM.
Still for that read-out and setting: then `Cc1cn2nccc(-c3cn(C)nc3-c3ccc(F)cc3)c2n1` [Compound I-4, 8-(3-(4-fluorophenyl)-1-methyl-1H-pyrazol-4-yl)-2-methyli-midazo[1,2-b]pyridazine], with 2.7 µM; and `Cn1cc(-c2ccnn3c(N)cnc23)c(-c2ccc(F)cc2)n1` [Compound I-8, 8-(3-(4-fluorophenyl)-1-methyl-1H-pyrazol-4-yl)imidazo[1,2-b]pyridazin-3-amine], with 3.3 µM; and `Cn1cc(-c2ccnn3cccc23)c(-c2ccc(F)cc2)n1` [Compound I-9, 4-(3-(4-fluorophenyl)-1-methyl-1H-pyrazol-4-yl)pyrrolo[1,2-b]pyridazine], with 2.5 µM.
In turn, `Cn1cc(-c2ccnn3cnnc23)c(-c2ccc(F)cc2)n1` [Compound I-10, 8-(3-(4-fluorophenyl)-1-methyl-1H-pyrazol-4-yl)-[1,2,4]triazo-lo[4,3-b]pyridazine] showed an EC50 in data set [1] of 7.9 µM.
Compound `COC(=O)c1cn2nccc(-c3cn(C)nc3-c3ccc(F)cc3)c2n1` [Compound I-12, methyl 8-(3-(4-fluorophenyl)-1-methyl-1H-pyrazol-4-yl)imidazo[1,2-b]pyridazine-2-carboxylate] came in with an EC50 in data set [1] of 8.6 µM.
As to `Cn1cc(-c2ccnn3cc(N)nc23)c(-c2ccc(F)cc2)n1` [Compound I-13, 8-(3-(4-fluorophenyl)-1-methyl-1H-pyrazol-4-yl)imidazo[1,2-b]pyridazin-2-amine], in data set [1], the 50% effective concentration (EC50) came to 2.8 µM.
In data set [1], `Cn1cc(-c2ccnn3cc(CN)nc23)c(-c2ccc(F)cc2)n1` [Compound I-14] yielded an EC50 of 0.2 µM. For the same compound, in data set [2], the Papp A→B (usually the apparent permeability from the apical to the basolateral side of a cell layer) at 2 h, 5 μM is 130 nm/s; the Papp B→A – broadly, how fast a substance crosses the layer from the basolateral side – at 2 h, 5 μM was 315 nm/s; the efflux ratio (commonly a quotient of directional permeabilities that is used to spot active efflux) at 2 h, 5 μM turned out to be 2.43. For the same compound, in data set [3], the microsomal CLint at 2 μM was found to be 0.93 µL/min/mg and the half-life at 2 μM stood at 24.9 h. In addition, in data set [4], the microsomal CLint at 2 μM stood at 5.9 µL/min/mg and the half-life at 2 μM worked out at 3.92 h.
In the case of `Cn1cc(-c2ccnn3cc(C(N)=O)nc23)c(-c2ccc(F)cc2)n1` [Compound I-15, 8-(3-(4-fluorophenyl)-1-methyl-1H-pyrazol-4-yl)imidazo[1,2-b]pyridazine-2-carboxamide], the EC50 in data set [1] is 0.5 µM. Also, in data set [2], the apparent permeability from apical to basolateral (Papp A→B) at 2 h, 5 μM was determined as 248 nm/s; the Papp B→A at 2 h, 5 μM is 252 nm/s; the efflux ratio at 2 h, 5 μM stood at 1.02. In data set [4], the microsomal CLint at 2 μM is 38.8 µL/min/mg and the half-life at 2 μM was 0.595 h.
Turning to `CNC(=O)c1cn2nccc(-c3cn(C)nc3-c3ccc(F)cc3)c2n1` [Compound I-16, 8-(3-(4-fluorophenyl)-1-methyl-1H-pyrazol-4-yl)-N-methyli-midazo[1,2-b]pyridazine-2-carboxamide], a half-maximal effect in data set [1] (EC50) was put at 0.7 µM. Further, in data set [2], the Papp A→B at 2 h, 5 μM was 224 nm/s; the Papp B→A at 2 h, 5 μM was 208 nm/s; the efflux ratio at 2 h, 5 μM worked out at 0.93. In addition, in data set [3], the microsomal CLint at 2 μM was 12.5 µL/min/mg and the half-life at 2 μM is 1.85 h. In data set [4], the microsomal CLint at 2 μM stood at 66.8 µL/min/mg and the half-life at 2 μM amounted to 0.346 h.
In data set [1], `Cn1cc(-c2ccnn3cc(C(C)(C)O)nc23)c(-c2ccc(F)cc2)n1` [Compound I-17, 2-(8-(3-(4-fluorophenyl)-1-methyl-1H-pyrazol-4-yl)imidazo[1,2-b]pyridazin-2-yl)propan-2-ol] came in with an EC50 of 0.4 µM. In addition, in data set [2], the Papp A→B at 2 h, 5 μM was determined as 253 nm/s; the Papp B→A at 2 h, 5 μM worked out at 194 nm/s; the efflux ratio at 2 h, 5 μM was 0.77. Besides, in data set [3], the microsomal CLint at 2 μM amounted to 3.25 µL/min/mg and the half-life at 2 μM was 7.11 h. Moreover, in data set [4], the microsomal CLint at 2 μM amounted to 19.1 µL/min/mg and the half-life at 2 μM is 1.21 h.
In turn, `CNc1cn2nccc(-c3cn(C)nc3-c3ccc(F)cc3)c2n1` [Compound I-19, 8-(3-(4-fluorophenyl)-1-methyl-1H-pyrazol-4-yl)-N-methyli-midazo[1,2-b]pyridazin-2-amine] yielded a concentration giving a half-maximal response (EC50) in data set [1] of 25 µM.
Still for that read-out and setting: then `CC(=O)Nc1cn2nccc(-c3cn(C)nc3-c3ccc(F)cc3)c2n1` [Compound I-20, N-(8-(3-(4-fluorophenyl)-1-methyl-1H-pyrazol-4-yl)imidazo [1,2-b]pyridazin-2-yl)acetamide], with 2.5 µM; and `CC(=O)NCc1cn2nccc(-c3cn(C)nc3-c3ccc(F)cc3)c2n1` [Compound I-21, N-((8-(3-(4-fluorophenyl)-1-methyl-1H-pyrazol-4-yl)imidazo [1,2-b]pyridazin-2-yl)methyl)acetamide], with 5.3 µM.
Turning to `CNCc1cn2nccc(-c3cn(C)nc3-c3ccc(F)cc3)c2n1` [Compound I-22, 1-(8-(3-(4-fluorophenyl)-1-methyl-1H-pyrazol-4-yl)imidazo[1,2-b]pyridazin-2-yl)-N-methylmethanamine], the EC50 in data set [1] worked out at 0.3 µM. Further, in data set [2], the Papp A→B at 2 h, 5 μM was 127 nm/s; the Papp B→A at 2 h, 5 μM amounted to 321 nm/s; the efflux ratio at 2 h, 5 μM was 2.52. In data set [3], the microsomal CLint at 2 μM is 2.64 µL/min/mg and the half-life at 2 μM stood at 8.76 h. Further, in data set [4], the microsomal CLint at 2 μM was 18.9 µL/min/mg and the half-life at 2 μM is 1.22 h.
As to `CC(=O)N1CCn2nc(-c3ccc(F)cc3)c(-c3ccnc4[nH]ccc34)c2C1` [Compound I-24, 1-(2-(4-fluorophenyl)-3-(1H-pyrrolo[2,3-b]pyridin-4-yl)-6,7-dihydropyrazolo[1,5-a]pyrazin-5(4H)-yl)ethan-1-one], the midpoint of the response in data set [1], the EC50, lay at 0.8 µM. Moreover, in data set [2], the Papp A→B at 2 h, 5 μM was found to be 52.8 nm/s; the Papp B→A at 2 h, 5 μM worked out at 184 nm/s; the efflux ratio at 2 h, 5 μM turned out to be 3.49. Besides, in data set [3], the microsomal CLint at 2 μM worked out at 7.47 µL/min/mg and the half-life at 2 μM amounted to 3.09 h. In data set [4], the microsomal CLint at 2 μM was found to be 24.7 µL/min/mg and the half-life at 2 μM amounted to 0.935 h.
